Key:
MRSA ATCC33591 = test: Neutropenic murine thigh infection model; format: in vivo, Balb/c mice; details: for bacterial load in thigh: 12 mg kg^−1 i.p. at 1 h and 13 h post-infection, 24 h, untreated 8 log CFU g^−1
Experimental: The in vitro activity, low toxicity, and stability in plasma and liver homogenate, supported the potential of VanQAmC10 as a candidate for the treatment of bacterial infections. The efficacy of VanQAmC10 (8) against MRSA was tested in a neutropenic mouse thigh infection model. Infection was established by injecting them with 5 × 10^5 CFU of MRSA in the thigh. 1 h and 13 h post-infection, mice were treated with 12 mg kg^−1 of vancomycin and VanQAmC10 administered intraperitoneally (Fig. 6B). The mice were sacrificed 24 h post-infection. […] In the untreated group, the bacterial load increased to 8 log CFU g^−1. […] However, treatment with VanQAmC10 reduced the bacterial load to 3.3 log CFU g^−1, which is a 1.5 log CFU g^−1 lower bacterial load than observed against vancomycin. […]
bacterial concentration was adjusted to ~ […] based on OD600. The process was repeated for 27 passages. The fold of MIC increased for test compounds were plotted against […]
Activity in blood plasma and liver homogenate
To examine the susceptibility of VanQAmC10 to serum proteases, the antibacterial activities was tested in the presence of 50% of plasma and liver homogenate. Briefly, 250 μL of VanQAmC10 was added into 250 μL of fresh human plasma and incubated at 37 °C. An aliquot of the samples 3 h and 24h post-incubation was diluted in 0.9% saline and the antibacterial activity (MIC) were determined against MRSA and VRE by following the same protocol as described above for the antibacterial assay.
The toxicity of the lead compound VanQAmC10 was tested in mice through various modes of administration and reported as the LD50 (LD = lethal dose). The LD50 is the dosage that kills 50% of the test population of mice. […]
The doses for administration, were given modified OECD guidelines. LD50 was determined using Spearman-Karber method. […]
Groups of four 6 to 8 week-old Balb/c specific-pathogen-free female mice were used (weight ~22 g) for the experiment. […] The bacterial titer was expressed as Log CFU/g of thigh weight and plotted in GraphPad Prism software. […]

ΔamiAC MG1655 E. coli = test: Antibacterial activity against ΔamiAC MG1655 E. coli; format: cell-based; details: LB media, 18 h
Experimental: The bacterial amidases help cleave the septum in the final stage of cell division to produce daughter cells.[39] In the absence of amidases, chains of unseparated cells are formed (Fig. 5D). These retain distinct cytoplasmic compartments but share an outer membrane.[39] These cells are known to be hypersensitive to antibiotics and detergents. However, ΔamiAC mutations are resistant to killing by cephalexin.[38] The MIC of VanQAmC10 against the ΔamiAC mutant was reduced to 4 μM, while that of vancomycin was >10 μM. […] This is indicative of impaired cell division. Cell debris due to lysis after compound treatment are also visible. […]
resuspended in prewarmed BMM media. 1:1 BAC light dye was then added to the bacterial suspension and incubated for 5 minutes. The fluorescence in the GFP and Texas red channels was then observed under the microscope. The experiments were performed three times independently and the images are representative of results from three independent experiments. […]
About 6 μl of sample was immobilized on 1% agarose pad . DIC and fluorescence images were obtained at different time intervals using Nikon Eclipse Ti Microscope equipped with Nikon DS-U3 camera through Plan Apo 100×/1.40 oil objective. […]
from 10 μg/mL. The bacteria with compounds and untreated control were incubated for 18 h at 37 ̊C under shaking and OD600 was measured. […]

Structure (SMILES) | bacterial load in thigh (MRSA ATCC33591) | lower bacterial load than observed against vancomycin (MRSA ATCC33591; 12 mg kg^−1 i.p. twice) | MIC against the ΔamiAC mutant (ΔamiAC MG1655 E. coli)
CCCCCCCCCCNC(=O)C[N+](C)(C)CCCNC(=O)C1NC(=O)C2NC(=O)C(NC(=O)C3NC(=O)C(CC(N)=O)NC(=O)C(NC(=O)C(CC(C)C)NC)C(O)c4ccc(c(Cl)c4)Oc4cc3cc(c4OC3OC(CO)C(O)C(O)C3OC3CC(C)(N)C(O)C(C)O3)Oc3ccc(cc3Cl)C2O)c2ccc(O)c(c2)-c2c(O)cc(O)cc21 (centres unmarked) [VanQAmC10 (8)] | 3.3 log CFU g^−1 | 1.5 log CFU g^−1 | 4 µM
CN[C@H](CC(C)C)C(=O)N[C@H]1C(=O)N[C@@H](CC(N)=O)C(=O)N[C@H]2C(=O)N[C@H]3C(=O)N[C@H](C(=O)N[C@H](C(=O)O)c4cc(O)cc(O)c4-c4cc3ccc4O)[C@H](O)c3ccc(c(Cl)c3)Oc3cc2cc(c3O[C@@H]2O[C@H](CO)[C@@H](O)[C@H](O)[C@H]2O[C@H]2C[C@](C)(N)[C@H](O)[C@H](C)O2)Oc2ccc(cc2Cl)[C@H]1O [Vancomycin, reference compound] | 4.8 log CFU g^−1 | – | > 10 µM
